# Measurements from patent US8178506B2, “Oligomeric compounds and compositions for use in modulation of small non-coding RNAs” (Regulus Therapeutics Inc., priority 2003, dated 2012).
# In the oligonucleotide strings, read from the 5' end, every base follows the letter of its sugar. An asterisk marks phosphorothioate; unmarked linkages are phosphodiester. Other units and linkages are bracketed, terminal groups are in braces. A string of capitals states the bases alone. e = 2'-O-(2-methoxyethyl) (MOE); [5mC] = 5-methylcytosine
# Legend:
# Assay type in all cases: cell-based, human
# [1] = test system: adipocytes; experiment: Triglyceride accumulation assay in adipocytes
# [2] = test system: aP2; experiment: aP2 mRNA expression in adipocytes (real-time PCR); conditions: for aP2 mRNA: Table 75
# [3] = test system: HSL; experiment: HSL mRNA expression in adipocytes (real-time PCR)
# [4] = test system: Glut4; experiment: Glut4 mRNA expression in adipocytes (real-time PCR)
# [5] = test system: PPARγ; experiment: PPARγ mRNA expression in adipocytes (real-time PCR)
# [6] = differentiating adipocytes transfected with oligomeric compound, Table 75
# [7] = differentiating adipocytes transfected with oligomeric compound
# [8] = Table 17, differentiating adipocytes, control = treatment with ISIS 342673
# [9] = Table 18, differentiating adipocytes, control = treatment with ISIS 342673
Substance,"TG (triglyceride accumulation) [1, 6]","aP2 mRNA [2, 7]","HSL mRNA [3, 6]","GLUT4 mRNA [4, 6]","PPAR gamma mRNA [5, 6]",other results
"346917 (CAGCUAUGCCAGCAUCUUGCCU; all 2'-MOE, all phosphorothioate, methylation of C and T or U not given here) [compound 346917]",39 percentage of untreated control (UTC),33 percentage of untreated control (UTC),27 percentage of untreated control (UTC),20 percentage of untreated control (UTC),31 percentage of untreated control (UTC),
328098 (antisense eG*eA*eG*eA*eA*eT*e[5mC]*eA*eA*eT*eA*eG*eG*eG*e[5mC]*eA*eT*eG*e[5mC]*eA*eA) [compound 328098],39 percentage of untreated control (UTC),23 percentage of untreated control (UTC),28 percentage of untreated control (UTC),25 percentage of untreated control (UTC),54 percentage of untreated control (UTC),
328131 (antisense eA*eT*eA*eT*eG*eT*e[5mC]*eA*eT*eA*eT*e[5mC]*eA*eA*eA*e[5mC]*eT*e[5mC]*e[5mC]*eT*eA) [compound 328131],74 percentage of untreated control (UTC),63 percentage of untreated control (UTC),51 percentage of untreated control (UTC),56 percentage of untreated control (UTC),55 percentage of untreated control (UTC),"TG (triglyceride accumulation) [1, 8]: 89.1 percentage of control; AP2 mRNA [2, 8]: 95.4 percentage of control; HSL mRNA [3, 8]: 81.8 percentage of control; GLUT4 mRNA [4, 8]: 103.6 percentage of control; PPAR gamma mRNA [5, 8]: 88.2 percentage of control"
"346909 (UCACCAAAACAUGGAAGCACUUA; all 2'-MOE, all phosphorothioate, methylation of C and T or U not given here) [compound 346909]",66 percentage of untreated control (UTC),68 percentage of untreated control (UTC),64 percentage of untreated control (UTC),64 percentage of untreated control (UTC),77 percentage of untreated control (UTC),
"344611 (ACAUUUUUCGUUAUUGCUCUUGA; anti-miR; all 2'-MOE, all phosphorothioate, methylation of C and T or U not given here) [compound 344611]",43 percentage of untreated control (UTC),34 percentage of untreated control (UTC),31 percentage of untreated control (UTC),3 percentage of untreated control (UTC),34 percentage of untreated control (UTC),
328106 (antisense eA*eT*eT*eG*eA*eT*eG*e[5mC]*eG*e[5mC]*e[5mC]*eA*eT*eT*eT*eG*eG*e[5mC]*e[5mC]*eT*eA) [compound 328106],70 percentage of untreated control (UTC),91 percentage of untreated control (UTC),86 percentage of untreated control (UTC),79 percentage of untreated control (UTC),81 percentage of untreated control (UTC),"TG (triglyceride accumulation) [1, 9]: 90.5 percentage of control; AP2 mRNA [2, 9]: 88.8 percentage of control; HSL mRNA [3, 9]: 94.9 percentage of control; GLUT4 mRNA [4, 9]: 105.7 percentage of control; PPAR gamma mRNA [5, 9]: 90.7 percentage of control"
328113 (antisense e[5mC]*eA*eA*eA*eA*eA*eT*eT*eA*eT*e[5mC]*eA*eG*e[5mC]*e[5mC]*eA*eG*eT*eT*eT*eA) [compound 328113],74 percentage of untreated control (UTC),87 percentage of untreated control (UTC),83 percentage of untreated control (UTC),78 percentage of untreated control (UTC),85 percentage of untreated control (UTC),"TG (triglyceride accumulation) [1, 9]: 80.8 percentage of control; AP2 mRNA [2, 9]: 84.5 percentage of control; HSL mRNA [3, 9]: 90.6 percentage of control; GLUT4 mRNA [4, 9]: 99.9 percentage of control; PPAR gamma mRNA [5, 9]: 93.8 percentage of control"
"346913 (AGAAAGGCAGCAGGUCGUAUAG; all 2'-MOE, all phosphorothioate, methylation of C and T or U not given here) [compound 346913]",63 percentage of untreated control (UTC),66 percentage of untreated control (UTC),58 percentage of untreated control (UTC),40 percentage of untreated control (UTC),59 percentage of untreated control (UTC),
328118 (antisense eT*eA*eT*eT*eA*eT*e[5mC]*eA*eG*e[5mC]*eA*eT*e[5mC]*eT*eG*e[5mC]*eT*eT*eG*e[5mC]*eA) [compound 328118],69 percentage of untreated control (UTC),74 percentage of untreated control (UTC),67 percentage of untreated control (UTC),57 percentage of untreated control (UTC),72 percentage of untreated control (UTC),"TG (triglyceride accumulation) [1, 8]: 69.3 percentage of control; AP2 mRNA [2, 8]: 92.7 percentage of control; HSL mRNA [3, 8]: 85.3 percentage of control; GLUT4 mRNA [4, 8]: 76.6 percentage of control; PPAR gamma mRNA [5, 8]: 80.2 percentage of control"
"346694 (AACCCAUGGAAUUCAGUUCUCA; all 2'-MOE, all phosphorothioate, methylation of C and T or U not given here) [compound 346694]",31 percentage of untreated control (UTC),41 percentage of untreated control (UTC),18 percentage of untreated control (UTC),5 percentage of untreated control (UTC),32 percentage of untreated control (UTC),
"344269 (antisense UAACCGAUUUCAAAUGGUGCUA; all 2'-MOE, all phosphorothioate, methylation of C and T or U not given here) [compound 344269]",42 percentage of untreated control (UTC),41 percentage of untreated control (UTC),35 percentage of untreated control (UTC),28 percentage of untreated control (UTC),48 percentage of untreated control (UTC),
328116 (antisense e[5mC]*eA*eA*eA*eA*eT*eT*eG*e[5mC]*eA*eA*eG*e[5mC]*eA*eA*eA*eT*eT*eG*e[5mC]*eA) [compound 328116],107 percentage of untreated control (UTC),99 percentage of untreated control (UTC),91 percentage of untreated control (UTC),105 percentage of untreated control (UTC),95 percentage of untreated control (UTC),"TG (triglyceride accumulation) [1, 8]: 82.1 percentage of control; AP2 mRNA [2, 8]: 87.7 percentage of control; HSL mRNA [3, 8]: 75.8 percentage of control; GLUT4 mRNA [4, 8]: 75.2 percentage of control; PPAR gamma mRNA [5, 8]: 78.4 percentage of control"
"341796 (antisense UCAUACAGCUAGAUAACCAAAGA; all 2'-MOE, all phosphorothioate, methylation of C and T or U not given here) [compound 341796]",59 percentage of untreated control (UTC),74 percentage of untreated control (UTC),67 percentage of untreated control (UTC),58 percentage of untreated control (UTC),66 percentage of untreated control (UTC),
"346692 (UAAACGGAACCACUAGUGACUUG; all 2'-MOE, all phosphorothioate, methylation of C and T or U not given here) [compound 346692]",35 percentage of untreated control (UTC),26 percentage of untreated control (UTC),18 percentage of untreated control (UTC),11 percentage of untreated control (UTC),28 percentage of untreated control (UTC),
328127 (antisense eA*eA*e[5mC]*eG*eA*eT*eA*eA*eA*eA*e[5mC]*eA*eT*eA*e[5mC]*eT*eT*eG*eT*e[5mC]*eA) [compound 328127],81 percentage of untreated control (UTC),95 percentage of untreated control (UTC),93 percentage of untreated control (UTC),75 percentage of untreated control (UTC),85 percentage of untreated control (UTC),"TG (triglyceride accumulation) [1, 8]: 74.5 percentage of control; AP2 mRNA [2, 8]: 86.9 percentage of control; HSL mRNA [3, 8]: 89.7 percentage of control; GLUT4 mRNA [4, 8]: 80.8 percentage of control; PPAR gamma mRNA [5, 8]: 77.6 percentage of control"
328093 (antisense eT*eA*eA*eA*e[5mC]*eA*eT*e[5mC]*eA*e[5mC]*eT*eG*e[5mC]*eA*eA*eG*eT*e[5mC]*eT*eT*eA) [compound 328093],,,,,,"TG (triglyceride accumulation) [1, 7]: 59 percentage of untreated control (UTC); AP2 mRNA [2, 7]: 97 percentage of untreated control (UTC); HSL mRNA [3, 7]: 89 percentage of untreated control (UTC); GLUT4 mRNA [4, 7]: 73 percentage of untreated control (UTC); PPAR gamma mRNA [5, 7]: 99 percentage of untreated control (UTC)"
